Measurements reported in PMC9969396, “Development of Human Carbonic Anhydrase II Heterobifunctional Degraders” (Journal of Medicinal Chemistry, 2023).
Read-outs that look alike come from different tables or passages of the source.

How the values were obtained:
hCAII [1] = molecular target: T1, hCAII (Homo sapiens, UniProt P00918); assay: colorimetric p-nitrophenyl acetate hCAII activity assay; assay type: biochemical
T1 construct: made in house; host or cells: Escherichia coli BL21(DE3), pACA plasmid (gift from Carol A. Fierke)
Protocol: To verify that the p-sulfamoyl benzamide MBP retained its binding following ligation with the linker and bulky recruiting group moieties, the inhibition activity of each degrader candidate was determined using a colorimetric p-nitrophenol acetate hCAII activity assay.[46] In short, recombinantly expressed hCAII was preincubated with the degrader candidate before the addition of p-nitrophenyl acetate, a substrate that upon enzymatic cleavage leads to acetic acid and p-nitrophenolate.
Recombinant hCAII was expressed and purified according to the protocol reported in the Supporting Information. […] Wells were prepared to a final volume of 100 μL per well, including buffer (50 mM HEPES, pH 8.0), enzyme (hCAII, 40 nM), inhibitor (varying concentrations), and substrate (p-nitrophenyl acetate, 500 μM). Inhibitors and protein were preincubated for 10 min at rt, and the substrate was added to the reaction mixture immediately before reading. […] The rate of absorbance for each replicate was corrected for substrate autohydrolysis and inherent inhibitor absorbance by subtracting the rate of absorbance from a blank sample lacking enzyme but containing the inhibitor and substrate. Samples lacking inhibitor but containing enzyme and substrate were used to define 100% hCAII activity. Samples lacking inhibitor and enzyme were used to define 0% hCAII activity. IC50 was determined using non-linear regression with a variable slope on the GraphPad Prism software.

hCAII [2] = molecular target: T2, hCAII (Homo sapiens, UniProt P00918+Q96SW2); assay: nine-point dose response hCAII degradation assay in HEK293 cells, western blot; assay type: cell-based
T2 construct: HEK293 cells, a line known to abundantly express hCAII; endogenous in cells; host or cells: HEK293
Protocol: Three biological replicates of HEK293 cells were dosed in parallel with 4 or 5 at concentrations ranging from 5 pM to 15 μM for 24 h prior to lysis. […] This phenomenon can be attributed to the binary complexes of degrader-POI and degrader-E3 ligase outcompeting the POI-degrader-E3 ligase ternary complex at high degrader concentrations. […] The half-maximal degradation (DC50 value reported as a 95% confidence interval) and maximum percentage of degradation (DMax) of each active degrader were determined using a least squares sigmoidal fitting of the degradation activity of dosing concentrations below the observable “hook effect” (Figure 2B).
Figure 3 Dose-dependent degradation of hCAII by 4 and 5. (A) Western blot images of HEK293 cells dosed for 24 h with degrader 4 (left) or 5 (right) at concentrations of 5 pM to 15 μM. (B) Dose response curves of hCAII abundance as a percent of DMSO vehicle for 4 (left) or 5 (right). Band intensities of blots from three biological replicates were quantified using ImageJ software (Experimental Section). Data were normalized to a vehicle-treated (DMSO) group and plotted as a sigmoidal curve. Nonlinear fitting of log([inhibitor]) vs response (three parameters) was generated for 4 with R^2 = 0.955 and 5 with R^2 = 0.855 in GraphPad Prism. Points marked with an asterisk indicate only two biological replicates. In all other cases, error bars represent the standard deviation of triplicate experiments. Full images of the western blots are provided in the Supporting Information (Figures S1 and S3).
Given the inactivity of 1–3 and increased potency of 4 over 5, a 12-atom linker appeared to be a preferred length for favorable ternary complex formation in the heterobifunctional degraders tested. To further examine the role of linker length and composition, we explored hydrocarbon linkers for their ability to improve degrader lipophilicity and membrane permeability without impacting the favorable ternary complex formation. […] Western blot analysis and quantification of three biological replicates identified the degradation of hCAII at concentrations of 11 as low as 50 pM and achieved near-complete hCAII degradation at concentrations of 5 nM (Figures 5A and S3).
After reaching 90% confluency, HEK293 cells were trypsinized, counted, and plated with 2 mL media at 2 × 10^6 cells per well on a tissue-culture-treated, 6-well plate. At the appropriate number of hours before reaching ∼90% confluency, cells were treated with DMSO solutions of the appropriate compounds (final concentration 0.5% DMSO per well). Upon reaching 90% confluency, typically 72 h, culture media were removed and the cells were washed with cold Dulbecco’s phosphate-buffered saline (DPBS). Lysis buffer, composed of cell lysis buffer (Cell Signaling Technology, 9803), protease inhibitor cocktail (Cell Signaling Technology, 5872), and 1 mM phenylmethylsulfonylfluoride, was added to each well, and the plates were rocked at 4 °C for 20 min. Cells were then scraped from the bottom of the plates, and the supernatant was collected after spinning down at 14,000g at 4 °C for 10 min and frozen at −80 °C. Lysates were thawed on ice, and the total protein concentration was measured using a Pierce bicinchoninic acid protein assay (Thermo Fisher Scientific, 23225). […] Following heating at 98 °C for 5 min and cooling to room temperature, the prepared samples were electrophoretically separated on a 4–20% TGX gel (Bio-Rad, 4568095) and transferred to a PVDF membrane (Amersham Hybond P 0.45 μm, 106000019) in a tris-glycine transfer buffer (Thermo Fisher Scientific, LC3675) with a 20% final MeOH concentration. The membrane was rocked at 4 °C with fluorescent blocking buffer (Thermo Fisher Scientific, 37565) for 1 h and then incubated with primary antibodies (hCAII Rabbit mAb, 1:1000 and β-actin Rabbit pAb, 1:2000 in fluorescent blocking buffer) at 4 °C overnight. […]

hCAII [3] = molecular target: T2, hCAII; assay: time-course of hCAII abundance in HEK293 cells, western blot; assay type: cell-based; conditions: 50 nM
Protocol: To determine the efficiency of 11, hCAII abundance was evaluated in HEK293 cells that were dosed with 50 nM of 11 over 48 h. Depletion of hCAII relative to vehicle (DMSO) began within 2 h and reached a maximal effect by 6 h (Figure 5c). Sustained degradation was also observed for the entirety of the 48 h tested. Based on the results of this time-course dosing experiment, it appears that 11 begins degrading hCAII quickly after exposure to the cell and maintains prolonged activity after initial dosing.
After reaching 90% confluency, HEK293 cells were trypsinized, counted, and plated with 2 mL media at 2 × 10^6 cells per well on a tissue-culture-treated, 6-well plate. […] Lysates were thawed on ice, and the total protein concentration was measured using a Pierce bicinchoninic acid protein assay (Thermo Fisher Scientific, 23225). […] The immunoblot was then analyzed using the ImageJ software as an 8-bit image. The brightness and contrast of the image were adjusted, and the integrated density was calculated for each protein band using the gel lane analysis tool. Relative hCAII expression was calculated by normalizing the hCAII/β-actin ratio in compound-treated wells to the hCAII/β-actin ratio in vehicle (DMSO)-treated wells and indicated as “hCAII Abundance (% DMSO)”.

hCAII [4] = molecular target: T2, hCAII; assay: competition / mechanistic experiments on hCAII degradation in HEK293 cells, western blot; assay type: cell-based; conditions: then 50 nM for 6 h
Protocol: Competition experiments were performed to verify that the degradation activity of 11 was the result of a PROTAC-style mechanism requiring concurrent degrader engagement with both hCAII and CRBN.
After reaching 90% confluency, HEK293 cells were trypsinized, counted, and plated with 2 mL media at 2 × 10^6 cells per well on a tissue-culture-treated, 6-well plate. At the appropriate number of hours before reaching ∼90% confluency, cells were treated with DMSO solutions of the appropriate compounds (final concentration 0.5% DMSO per well). Upon reaching 90% confluency, typically 72 h, culture media were removed and the cells were washed with cold Dulbecco’s phosphate-buffered saline (DPBS). Lysis buffer, composed of cell lysis buffer (Cell Signaling Technology, 9803), protease inhibitor cocktail (Cell Signaling Technology, 5872), and 1 mM phenylmethylsulfonylfluoride, was added to each well, and the plates were rocked at 4 °C for 20 min. Cells were then scraped from the bottom of the plates, and the supernatant was collected after spinning down at 14,000g at 4 °C for 10 min and frozen at −80 °C. Lysates were thawed on ice, and the total protein concentration was measured using a Pierce bicinchoninic acid protein assay (Thermo Fisher Scientific, 23225). […] Following heating at 98 °C for 5 min and cooling to room temperature, the prepared samples were electrophoretically separated on a 4–20% TGX gel (Bio-Rad, 4568095) and transferred to a PVDF membrane (Amersham Hybond P 0.45 μm, 106000019) in a tris-glycine transfer buffer (Thermo Fisher Scientific, LC3675) with a 20% final MeOH concentration. […] The immunoblot was then analyzed using the ImageJ software as an 8-bit image. The brightness and contrast of the image were adjusted, and the integrated density was calculated for each protein band using the gel lane analysis tool. Relative hCAII expression was calculated by normalizing the hCAII/β-actin ratio in compound-treated wells to the hCAII/β-actin ratio in vehicle (DMSO)-treated wells and indicated as “hCAII Abundance (% DMSO)”.

[5] = SMILES csv supplement, read-out: hCAII IC50
[6] = recombinant hCAII 40 nM, p-nitrophenyl acetate 500 μM, pH 8.0, 95% confidence interval, read-out: IC50 (nM), hCAII inhibition activity (Table S1)
[7] = enzyme concentration of 40 nM, read-out: IC50, below the detection limit of the assay

| SMILES | IC50 (hCAII [1]; [5]) [nM] | IC50 (hCAII [1]; [6]) [nM] | also measured |
| --- | --- | --- | --- |
| NS(=O)(=O)c1ccc(C(=O)NCCOCCNc2cccc3c2C(=O)N(C2CCC(=O)NC2=O)C3=O)cc1 (stereo not shown) [Compound 1, N-(2-(2-((2-(2,6-Dioxopiperidin-3-yl)-1,3-dioxoisoindolin-4-yl)amino)ethoxy)ethyl)-4-sulfamoylbenzamide] | 48 ± 5 | 48 ± 5 | – |
| NS(=O)(=O)c1ccc(C(=O)NCCOCCOCCOCCNc2cccc3c2C(=O)N(C2CCC(=O)NC2=O)C3=O)cc1 (stereo not shown) [Compound 3, N-(2-(2-(2-(2-((2-(2,6-Dioxopiperidin-3-yl)-1,3-dioxoisoindolin-4-yl)amino)ethoxy)ethoxy)ethoxy)ethyl)-4-sulfamoylbenzamide] | 41 ± 5 | 41 ± 5 | – |
| NS(=O)(=O)c1ccc(C(=O)NCCCOCCCCOCCCNC(=O)CC23CC4CC(CC(C4)C2)C3)cc1 [Compound 9, N-(3-(4-(3-(2-((3r,5r,7r)-Adamantan-1-yl)acetamido)propoxy)butoxy)propyl)-4-sulfamoylbenzamide] | 35 ± 5 | 35 ± 5 | – |
| NS(=O)(=O)c1ccc(C(=O)NCCCCCCCCCCCCNc2cccc3c2C(=O)N(C2CCC(=O)NC2=O)C3=O)cc1 (stereo not shown) [Compound 11, N-(12-((2-(2,6-Dioxopiperidin-3-yl)-1,3-dioxoisoindolin-4-yl)amino)dodecyl)-4-sulfamoylbenzamide] | – | – | Dmax (hCAII [2]; HEK293, HEK293 cells, 24 h, read-out: DMax (maximum percentage of degradation)): 100%; concentration achieving near-complete hCAII degradation (hCAII [2]; HEK293 cells, 24 h): 5 nM; degradation of hCAII at concentrations as low as (hCAII [2]; HEK293 cells, 24 h): 50 pM; DC50 (hCAII [2]; HEK293 cells, 24 h, 5 pM to 15 μM, 95% confidence interval, read-out: DC50 (half-maximal degradation)): 0.5 ± 0.3 nM; hook effect (attenuation of target degradation at high concentration) (hCAII [2]; HEK293 cells, 24 h, doses up to 15 μM): no appreciable “hook effect”; fold increase in activity over 4 (hCAII [2]; from DC50 values): 10 fold; time to maximal effect (hCAII [3]): ≤ 6 h; hCAII degradation after MG132 pre-treatment (hCAII [4]; HEK293, 1 μM MG-132 for 1 h): complete loss of hCAII degradation activity; hCAII degradation after acetazolamide pre-treatment (hCAII [4]; HEK293, 1 h preincubation with 5 μM acetazolamide): no degradation of hCAII; hCAII degradation after lenalidomide pre-treatment (hCAII [4]; HEK293, 1 h preincubation with 5 μM lenalidomide): no degradation of hCAII |
| COCCNC(=O)c1ccc(S(N)(=O)=O)cc1 [Compound 13, N-(2-Methoxyethyl)-4-sulfamoylbenzamide] | 58 ± 8 | 58 ± 8 | – |

The next lines start with results.

| IC50 (hCAII [1]; [5]) [nM] | IC50 (hCAII [1]; [6]) [nM] | SMILES | also measured |
| --- | --- | --- | --- |
| – | 57 ± 5 | NS(=O)(=O)c1ccc(C(=O)NCCOCCNC(=O)CC23CC4CC(CC(C4)C2)C3)cc1 [Compound 6, N-(2-(2-(2-((3r,5r,7r)-Adamantan-1-yl)acetamido)ethoxy)ethyl)-4-sulfamoylbenzamide] | – |
| – | ≤ 20 | NS(=O)(=O)c1ccc(C(=O)NCCOCCOCCNC(=O)CC23CC4CC(CC(C4)C2)C3)cc1 [Compound 7, N-(2-(2-(2-(2-((3r,5r,7r)-Adamantan-1-yl)acetamido)ethoxy)ethoxy)ethyl)-4-sulfamoylbenzamide] | IC50 (hCAII [1]; [7]): ≤ 20 nM |
| 28 ± 4 | 28 ± 4 | NS(=O)(=O)c1ccc(C(=O)NCCOCCOCCOCCNC(=O)CC23CC4CC(CC(C4)C2)C3)cc1 [Compound 8, N-(1-((3r,5r,7r)-Adamantan-1-yl)-2-oxo-6,9,12-trioxa-3-azatetradecan-14-yl)-4-sulfamoylbenzamide] | – |
| – | ≤ 20 | NS(=O)(=O)c1ccc(C(=O)NCCCOCCOCCOCCCNC(=O)CC23CC4CC(CC(C4)C2)C3)cc1 [Compound 10, N-(1-((3r,5r,7r)-Adamantan-1-yl)-2-oxo-7,10,13-trioxa-3-azahexadecan-16-yl)-4-sulfamoylbenzamide] | IC50 (hCAII [1]; [7]): ≤ 20 nM |
